Measurements reported in article PMC9106929 (Circulation research, 2022).

Biological target: Piezo1 (Mus musculus, UniProt E2JF22)
Assay: cell-attached single-channel patch clamp, open probability
Assay type: cell-based
Conditions: activator, 5 μM in pipette, -50 mV; effect absent in Piezo1-EC-KO cECs

Piezo1, sequence (E2JF22 whole entry): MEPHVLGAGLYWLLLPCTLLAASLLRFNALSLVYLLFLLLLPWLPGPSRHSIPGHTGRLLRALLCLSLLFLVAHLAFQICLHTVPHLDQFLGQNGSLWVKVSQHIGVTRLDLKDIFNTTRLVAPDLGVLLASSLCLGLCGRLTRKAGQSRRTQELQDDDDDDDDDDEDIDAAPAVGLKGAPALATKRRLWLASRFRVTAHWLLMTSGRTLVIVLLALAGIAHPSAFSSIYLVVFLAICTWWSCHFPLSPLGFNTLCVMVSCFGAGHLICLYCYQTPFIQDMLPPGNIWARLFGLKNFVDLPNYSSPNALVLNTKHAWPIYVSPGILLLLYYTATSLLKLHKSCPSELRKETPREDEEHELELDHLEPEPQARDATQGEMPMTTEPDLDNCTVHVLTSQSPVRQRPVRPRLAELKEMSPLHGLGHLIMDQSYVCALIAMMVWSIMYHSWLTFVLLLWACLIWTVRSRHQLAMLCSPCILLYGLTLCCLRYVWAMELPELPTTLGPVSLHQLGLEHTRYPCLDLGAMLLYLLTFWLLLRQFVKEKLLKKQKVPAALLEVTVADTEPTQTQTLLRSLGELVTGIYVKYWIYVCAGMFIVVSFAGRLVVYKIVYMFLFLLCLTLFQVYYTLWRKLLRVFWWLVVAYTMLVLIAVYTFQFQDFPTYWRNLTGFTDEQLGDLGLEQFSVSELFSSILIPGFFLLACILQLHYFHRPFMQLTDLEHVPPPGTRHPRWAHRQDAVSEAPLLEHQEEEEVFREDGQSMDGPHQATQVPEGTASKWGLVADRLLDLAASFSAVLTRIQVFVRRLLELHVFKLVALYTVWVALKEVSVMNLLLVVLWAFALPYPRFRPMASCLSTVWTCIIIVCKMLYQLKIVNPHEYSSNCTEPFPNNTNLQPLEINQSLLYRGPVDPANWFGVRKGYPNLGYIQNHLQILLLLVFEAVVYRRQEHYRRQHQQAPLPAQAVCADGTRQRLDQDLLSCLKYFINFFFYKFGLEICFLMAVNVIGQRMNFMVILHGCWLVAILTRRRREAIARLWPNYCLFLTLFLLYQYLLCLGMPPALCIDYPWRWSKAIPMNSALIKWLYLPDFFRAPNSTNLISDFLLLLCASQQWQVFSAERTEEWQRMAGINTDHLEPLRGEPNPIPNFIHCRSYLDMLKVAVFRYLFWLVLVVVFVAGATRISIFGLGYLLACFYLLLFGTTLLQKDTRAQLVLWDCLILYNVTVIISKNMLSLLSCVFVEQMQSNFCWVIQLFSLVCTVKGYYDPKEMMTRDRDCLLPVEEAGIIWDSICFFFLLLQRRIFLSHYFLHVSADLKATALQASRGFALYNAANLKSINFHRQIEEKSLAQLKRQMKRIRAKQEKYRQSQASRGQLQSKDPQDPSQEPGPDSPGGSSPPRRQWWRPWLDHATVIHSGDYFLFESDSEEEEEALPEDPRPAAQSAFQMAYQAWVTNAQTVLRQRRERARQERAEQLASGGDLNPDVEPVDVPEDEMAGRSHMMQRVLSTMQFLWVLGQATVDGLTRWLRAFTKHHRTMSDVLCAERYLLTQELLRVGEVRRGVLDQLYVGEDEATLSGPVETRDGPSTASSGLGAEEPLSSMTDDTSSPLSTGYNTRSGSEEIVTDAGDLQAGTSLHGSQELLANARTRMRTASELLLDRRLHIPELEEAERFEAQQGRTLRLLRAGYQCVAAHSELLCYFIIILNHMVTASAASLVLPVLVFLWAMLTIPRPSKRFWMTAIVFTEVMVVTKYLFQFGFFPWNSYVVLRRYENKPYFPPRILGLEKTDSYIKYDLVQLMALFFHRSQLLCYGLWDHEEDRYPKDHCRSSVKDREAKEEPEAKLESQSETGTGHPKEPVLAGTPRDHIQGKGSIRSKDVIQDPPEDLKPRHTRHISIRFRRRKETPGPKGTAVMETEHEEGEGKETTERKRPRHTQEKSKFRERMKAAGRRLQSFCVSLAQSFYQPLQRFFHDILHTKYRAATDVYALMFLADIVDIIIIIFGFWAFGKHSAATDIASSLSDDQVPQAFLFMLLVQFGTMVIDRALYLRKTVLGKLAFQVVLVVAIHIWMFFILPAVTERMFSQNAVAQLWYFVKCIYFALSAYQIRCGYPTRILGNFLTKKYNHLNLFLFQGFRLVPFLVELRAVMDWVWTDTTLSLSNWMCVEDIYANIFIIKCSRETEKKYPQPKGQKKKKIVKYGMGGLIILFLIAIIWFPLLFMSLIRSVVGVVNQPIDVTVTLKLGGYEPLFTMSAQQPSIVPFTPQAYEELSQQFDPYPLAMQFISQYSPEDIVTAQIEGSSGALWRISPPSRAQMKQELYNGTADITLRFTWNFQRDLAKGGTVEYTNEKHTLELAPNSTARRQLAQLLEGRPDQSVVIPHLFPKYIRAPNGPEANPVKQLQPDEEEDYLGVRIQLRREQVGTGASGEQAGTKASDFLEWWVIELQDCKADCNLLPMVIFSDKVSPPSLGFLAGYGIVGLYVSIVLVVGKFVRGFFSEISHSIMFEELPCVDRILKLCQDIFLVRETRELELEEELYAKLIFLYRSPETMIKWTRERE

Structure (SMILES): Clc1cccc(Cl)c1CSc1nnc(-c2cnccn2)s1 [Yoda1]
- cell-attached single-channel patch clamp, open probability: increased the open probability of Piezo1-like currents in Piezo1-EC-Ctrl cECs but not in Piezo1-EC-KO
